{"source": "patent EP2802310B1", "about": "“NEW USE OF ZERUMBONE AND COMPOSITIONS COMPRISING ZERUMBONE” (Sederma, priority 2012, dated 2013)", "key": {"Sirtuin-1": {"system": "Sirtuin-1", "test": "Sirtuin-1 level in keratinocytes, ELISA", "type": "cell-based", "conditions": "Homo sapiens, Keratinocyte, 144 h, positive control at 500µm, read-out: Sirtuin-1 % Variation", "experimental": "Human keratinocytes were cultured in the presence or absence of the Globularia cordifolia extract for 6 days and were then grinded and the intracellular levels of sirtuin-1 were measured using an ELISA method. Results were standardized by parallel measurement of total protein (BCA)."}, "Mature human adipocytes [1]": {"system": "Mature human adipocytes", "test": "Lipolytic effect, daily titration of released glycerol over 3 days", "type": "cell-based", "conditions": "Caffeine 300ppm; for activation at 300 ppm: Homo sapiens, Adipocyte, read-out: released glycerol, versus negative control", "experimental": "(§1) Mature human adipocytes were treated with zerumbone to evaluate daily for 3 days. A daily titration of the released glycerol, reflecting lipolysis, was measured in the medium, before the media were changed in order to monitor the long-term effect.\nIn a second test, mature human adipocytes were treated with the product to evaluate daily for 3 days. A daily titration of the released glycerol was performed in the media, just before changing of the media in order to monitor the long term effect. Table 19: Comparison of the lipolytic effect of caffeine, zerumbone and of a mixture of caffeine and zerumbone on hypertrophied adipocytes in monolayer (n=4) at short and long term."}, "Mature human adipocytes [2]": {"system": "Mature human adipocytes", "test": "Lipolytic effect, released glycerol after 3 hours", "type": "cell-based", "conditions": "Adipocyte, Caffeine 300ppm, contact time 3h, read-out: released glycerol, versus negative control", "experimental": "In a first test, mature human adipocytes were treated with the product to evaluate for 3 hours, then titration of the released glycerol, reflecting lipolysis, was measured in the medium."}, "mature adipocytes": {"system": "mature adipocytes", "test": "Intracellular triglyceride quantity in mature adipocytes", "type": "cell-based, human", "conditions": "Caffeine 300ppm", "experimental": "as §1\nTable 5: comparison of the intracellula triglyceride quantity found in mature adipocytes\nTable 20: Comparison of the intracellular triglyceride content found in the mature adipocytes; compared effect of zerumbone, caffeine and of a mixture of zerumbone and caffeine."}, "BSA": {"system": "BSA", "test": "Anti-glycation activity, BSA and fructose, fluorescence", "type": "biochemical", "conditions": "positive control at 0.03%", "from_the_text": "The anti-glycation effect of the extract of Globularia cordifolia was studied using a protein model, the BSA, and a natural reducing sugar, fructose which glycates, i.e. binds, to the protein in a non-enzymatic manner. The product of this binding is fluorescent and is monitored with a fluorimeter."}}}
{"compound": "Cc1c(C)c2c(c(C)c1O)CCC(C)(C(=O)O)O2", "note": "(stereo not drawn) [Trolox]", "values": [{"measurement": "activation at 500 µM", "setting": "Sirtuin-1", "value": 27, "unit": "%"}]}
{"compound": "Cn1c(=O)c2c(ncn2C)n(C)c1=O", "note": "[Caffeine, caffeine]", "values": [{"measurement": "released glycerol, versus negative control", "setting": "Mature human adipocytes [1]; contact time 1 day", "value": "+200%"}, {"measurement": "activation at 300 ppm", "setting": "Mature human adipocytes [1]; 24 h, contact time 1 day", "value": 200, "unit": "%"}, {"measurement": "activation at 300 ppm", "setting": "Mature human adipocytes [1]; 48 h, contact time 2 days", "value": 34, "unit": "%"}, {"measurement": "activation at 300 ppm", "setting": "Mature human adipocytes [1]; 72 h, contact time 3 days", "value": 18, "unit": "%"}, {"measurement": "activation at 300 ppm", "setting": "Mature human adipocytes [2]", "value": 171, "unit": "%"}, {"measurement": "Triglycerides", "setting": "mature adipocytes", "value": "7120 ± 542", "unit": "µM/10^6 cell."}, {"measurement": "inhibition at 300 ppm", "setting": "mature adipocytes; Homo sapiens, Adipocyte, 72 h, dns, read-out: Triglycerides Variation (%)", "value": 9, "unit": "%"}]}
{"compound": "N=C(N)NN", "note": "[aminoguanidine]", "values": [{"measurement": "Glycation % Variation", "setting": "BSA", "value": -85, "unit": "%"}]}
